Experimental data as given in US20100298141A1, “SUBSTITUTED PYRIDINE N-OXIDE HERBICIDES” (E. I. DU PONT DE NEMOURS AND COMPANY, priority 2007, published 2010).

Tests used:
eastern black nightshade = assay: Test G preemergence test; format: in vivo, Solanum ptycanthum; details: scale 0 to 100
itchgrass = assay: Test G preemergence test; format: in vivo, Rottboellia cochinchinensis; details: scale 0 to 100
lambsquarters = assay: Test G preemergence test; format: in vivo, Chenopodium album; details: scale 0 to 100
fall panicum = assay: Test G preemergence test; format: in vivo, Panicum dichotomiflorum; details: scale 0 to 100
millet foxtail = assay: Test G preemergence test; format: in vivo, Setaria italica; details: scale 0 to 100
downy bromegrass = assay: Test D preemergence test; format: in vivo, Bromus tectorum; details: scale 0 to 100
Outline: (§1)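 Seeds planted and treated preemergence with test chemicals formulated in a non-phytotoxic solvent mixture containing surfactant. A dash means no test result.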

rice = assay: Test B flooded paddy test; format: in vivo, Oryza sativa; details: Flood, 250 g ai/ha, 13 to 15 days; scale 0 to 100, 0 no effect, 100 complete control
Outline: (§2)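 Test compounds are applied straight into paddy water held 3 cm above the soil surface, with that flood maintained for the whole test. After 13 to 15 days in the greenhouse, each species is scored visually relative to controls.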

barnyardgrass = assay: Test B flooded paddy test; format: in vivo, Echinochloa crus-galli; details: Flood, 250 g ai/ha, 13 to 15 days; scale 0 to 100, 0 no effect, 100 complete control
Outline: as §2

yellow foxtail = assay: Test G preemergence test; format: in vivo, Pennisetum glaucum; details: scale 0 to 100
sorghum = assay: Test G preemergence test; format: in vivo, Sorghum vulgare; details: scale 0 to 100
green foxtail = assay: Test D preemergence test; format: in vivo, Setaria viridis; details: scale 0 to 100
Outline: as §1

littleseed canarygrass = assay: Test D preemergence test; format: in vivo, Phalaris minor; details: scale 0 to 100
Outline: as §1

tall waterhemp = assay: Test G preemergence test; format: in vivo, Amaranthus tuberculatos; details: scale 0 to 100
winter wheat = assay: Test D preemergence test; format: in vivo, Triticum aestivum; details: scale 0 to 100
Outline: as §1

spring wheat = assay: Test D preemergence test; format: in vivo, Triticum aestivum; details: scale 0 to 100
Outline: as §1

field violet = assay: Test D preemergence test; format: in vivo, Viola arvensis; details: scale 0 to 100
Outline: as §1

goosegrass = assay: Test G preemergence test; format: in vivo, Eleusine indica; details: scale 0 to 100
broadleaf signalgrass = assay: Test G preemergence test; format: in vivo, Brachiaria platyphylla; details: scale 0 to 100
blackgrass = assay: Test D preemergence test; format: in vivo, Alopecurus myosuroides; details: scale 0 to 100
Outline: as §1

large crabgrass = assay: Test G preemergence test; format: in vivo, Digitaria sanguinalis; details: scale 0 to 100
umbrella sedge = assay: Test B flooded paddy test; format: in vivo, Cyperus difformis; details: Flood, 250 g ai/ha, 13 to 15 days; scale 0 to 100, 0 no effect, 100 complete control
Outline: as §2

yellow nutsedge = assay: Test G preemergence test; format: in vivo, Cyperus esculentus; details: scale 0 to 100
duck salad = assay: Test B flooded paddy test; format: in vivo, Heteranthera limosa; details: Flood, 250 g ai/ha, 13 to 15 days; scale 0 to 100, 0 no effect, 100 complete control
Outline: as §2

winter barley = assay: Test D preemergence test; format: in vivo, Hordeum vulgare
Outline: as §1

windgrass = assay: Test D preemergence test; format: in vivo, Apera spica-venti; details: scale 0 to 100
Outline: as §1

woolly cupgrass = assay: Test G preemergence test; format: in vivo, Eriochloa villosa; details: scale 0 to 100

Cc1cc[n+]([O-])c(S(=O)(=O)Cc2c(C(F)(F)F)nn(C)c2OC(F)F)c1 [Compound 2]
Plant response rating, Nightshade (eastern black nightshade; 31 g ai/ha): 0
Plant response rating, Nightshade (eastern black nightshade; 62 g ai/ha): 40
Plant response rating, Nightshade (eastern black nightshade; 125 g ai/ha): 40
Plant response rating, Nightshade (eastern black nightshade; 250 g ai/ha): 45
Plant response rating, Itchgrass (itchgrass; 31 g ai/ha): 0
Plant response rating, Itchgrass (itchgrass; 62 g ai/ha): 15
Plant response rating, Itchgrass (itchgrass; 125 g ai/ha): 30
Plant response rating, Itchgrass (itchgrass; 250 g ai/ha): 50
Plant response rating, Lambsquarters (lambsquarters; 31 g ai/ha): 0
Plant response rating, Lambsquarters (lambsquarters; 62 g ai/ha): 0
Plant response rating, Lambsquarters (lambsquarters; 125 g ai/ha): 10
Plant response rating, Lambsquarters (lambsquarters; 250 g ai/ha): 15
Plant response rating, Fall Panicum (fall panicum; 31 g ai/ha): 25
Plant response rating, Fall Panicum (fall panicum; 62 g ai/ha): 65
Plant response rating, Fall Panicum (fall panicum; 125 g ai/ha): 100
Plant response rating, Fall Panicum (fall panicum; 250 g ai/ha): 100
Plant response rating, Foxtail, Millet (millet foxtail; 31 g ai/ha): 0
Plant response rating, Foxtail, Millet (millet foxtail; 62 g ai/ha): 100
Plant response rating, Foxtail, Millet (millet foxtail; 125 g ai/ha): 100
Plant response rating, Foxtail, Millet (millet foxtail; 250 g ai/ha): 100
Plant response rating, Bromegrass, Downy (downy bromegrass; 31 g ai/ha): 0
Plant response rating, Bromegrass, Downy (downy bromegrass; 62 g ai/ha): 20
Plant response rating, Bromegrass, Downy (downy bromegrass; 125 g ai/ha): 50
Plant response rating, Bromegrass, Downy (downy bromegrass; 250 g ai/ha): 55
Plant response rating, Rice, Transplanted (rice): 80
Plant response rating, Barnyardgrass (barnyardgrass): 80
Plant response rating, Foxtail, Yellow (yellow foxtail; 31 g ai/ha): 0
Plant response rating, Foxtail, Yellow (yellow foxtail; 62 g ai/ha): 20
Plant response rating, Foxtail, Yellow (yellow foxtail; 125 g ai/ha): 100
Plant response rating, Foxtail, Yellow (yellow foxtail; 250 g ai/ha): 100
Plant response rating, Sorghum (sorghum; 31 g ai/ha): 0
Plant response rating, Sorghum (sorghum; 62 g ai/ha): 0
Plant response rating, Sorghum (sorghum; 125 g ai/ha): 60
Plant response rating, Sorghum (sorghum; 250 g ai/ha): 100
Plant response rating, Foxtail, Green (green foxtail; 31 g ai/ha): 0
Plant response rating, Foxtail, Green (green foxtail; 62 g ai/ha): 30
Plant response rating, Foxtail, Green (green foxtail; 125 g ai/ha): 55
Plant response rating, Foxtail, Green (green foxtail; 250 g ai/ha): 65
Plant response rating, Canarygrass (littleseed canarygrass; 31 g ai/ha): 0
Plant response rating, Canarygrass (littleseed canarygrass; 62 g ai/ha): 60
Plant response rating, Canarygrass (littleseed canarygrass; 125 g ai/ha): 100
Plant response rating, Canarygrass (littleseed canarygrass; 250 g ai/ha): 100
Plant response rating, Waterhemp (tall waterhemp; 31 g ai/ha): 20
Plant response rating, Waterhemp (tall waterhemp; 62 g ai/ha): 100
Plant response rating, Waterhemp (tall waterhemp; 125 g ai/ha): 100
Plant response rating, Waterhemp (tall waterhemp; 250 g ai/ha): 100
Plant response rating, Wheat, Winter (winter wheat; 31 g ai/ha): 0
Plant response rating, Wheat, Winter (winter wheat; 62 g ai/ha): 0
Plant response rating, Wheat, Winter (winter wheat; 125 g ai/ha): 15
Plant response rating, Wheat, Winter (winter wheat; 250 g ai/ha): 25
Plant response rating, Wheat, Spring (spring wheat; 31 g ai/ha): 0
Plant response rating, Wheat, Spring (spring wheat; 62 g ai/ha): 0
Plant response rating, Wheat, Spring (spring wheat; 125 g ai/ha): 0
Plant response rating, Wheat, Spring (spring wheat; 250 g ai/ha): 15
Plant response rating, Field Violet (field violet; 31 g ai/ha): 0
Plant response rating, Field Violet (field violet; 62 g ai/ha): 0
Plant response rating, Field Violet (field violet; 125 g ai/ha): 95
Plant response rating, Field Violet (field violet; 250 g ai/ha): 100
Plant response rating, Goosegrass (goosegrass; 31 g ai/ha): 95
Plant response rating, Goosegrass (goosegrass; 62 g ai/ha): 100
Plant response rating, Goosegrass (goosegrass; 125 g ai/ha): 100
Plant response rating, Goosegrass (goosegrass; 250 g ai/ha): 100
Plant response rating, Signalgrass (broadleaf signalgrass; 31 g ai/ha): 0
Plant response rating, Signalgrass (broadleaf signalgrass; 62 g ai/ha): 50
Plant response rating, Signalgrass (broadleaf signalgrass; 125 g ai/ha): 65
Plant response rating, Signalgrass (broadleaf signalgrass; 250 g ai/ha): 65
Plant response rating, Blackgrass (blackgrass; 31 g ai/ha): 0
Plant response rating, Blackgrass (blackgrass; 62 g ai/ha): 70
Plant response rating, Blackgrass (blackgrass; 125 g ai/ha): 100
Plant response rating, Blackgrass (blackgrass; 250 g ai/ha): 100
Plant response rating, Crabgrass, Large (large crabgrass; 31 g ai/ha): 0
Plant response rating, Crabgrass, Large (large crabgrass; 62 g ai/ha): 75
Plant response rating, Crabgrass, Large (large crabgrass; 125 g ai/ha): 100
Plant response rating, Crabgrass, Large (large crabgrass; 250 g ai/ha): 100
Plant response rating, Umbrella Sedge (umbrella sedge): 100
Plant response rating, Nutsedge, Yellow (yellow nutsedge; 31 g ai/ha): 0
Plant response rating, Nutsedge, Yellow (yellow nutsedge; 62 g ai/ha): 0
Plant response rating, Nutsedge, Yellow (yellow nutsedge; 125 g ai/ha): 35
Plant response rating, Nutsedge, Yellow (yellow nutsedge; 250 g ai/ha): 75
Plant response rating, Ducksalad (duck salad): 100
Plant response rating, Barley (winter barley; Preemergence, 62 g ai/ha, scale 0 to 100): 0
Plant response rating, Barley (winter barley; Preemergence, 125 g ai/ha, scale 0 to 100): 10
Plant response rating, Barley (winter barley; Preemergence, 31 g ai/ha, scale 0 to 100): 0
Plant response rating, Barley (winter barley; preemergence, 250 g ai/ha, scale 0 (no effect) to 100 (complete control)): 10
Plant response rating, Windgrass (windgrass; 31 g ai/ha): 100
Plant response rating, Windgrass (windgrass; 62 g ai/ha): 100
Plant response rating, Windgrass (windgrass; 125 g ai/ha): 100
Plant response rating, Windgrass (windgrass; 250 g ai/ha): 100
Plant response rating, Cupgrass, Woolly (woolly cupgrass; 31 g ai/ha): 0
Plant response rating, Cupgrass, Woolly (woolly cupgrass; 62 g ai/ha): 0
Plant response rating, Cupgrass, Woolly (woolly cupgrass; 125 g ai/ha): 95
Plant response rating, Cupgrass, Woolly (woolly cupgrass; 250 g ai/ha): 95
